“Also recorded” adds a separate entry of the source. Marks after values point to notes of the source that are not given here.
Columns and labels:
MCF7 = experiment: breast cancer cell viability after 72 h of doxorubicin and RARG agonists co-treatment; assay type: cell-based, human; settings: MCF7, doxorubicin LD50 with agonist co-treatment, 10 μM, footnote: 1 μM each, 72 h; Vehicle 0.490
Protocol: (§2) 384-well plate-based cell viability, caspase 3/7 activity, and reactive oxygen species (ROS) assays. […] Luminescence was measured using a VarioSkan Lux Multi-Mode Reader (Thermo Scientific) with an integration time of 0.25 sec. 10 μM staurosporine (MedChemExpress) was used as a positive control. […] 10 μM staurosporine and 50 μM menadione (both MedChemExpress) was used as a positive control, respectively. Data were analyzed using Prism 7.0 software (GraphPad) using standard dose-response guidelines.
Breast cancer cell lines. Four human breast cancer cell lines were used, MCF7 (adenocarcinoma, ATCC HTB-22) and Hs 578T (carcinsarcoma, ATCC HTB-126) both cultured in RPMI 1640 (Corning) with 10% FBS (Opti-Gold, GenDEPOT), MDA-MB-231 (adenocarcinoma, ATCC HTB-26) and MDA-MB-468 (adenocarcinoma, ATCC HTB-131) both cultured in DMEM (Corning) with 10% FBS. All cells were cultured on uncoated tissue culture plates (Greiner) and passaged with TrypLE Express (Gibco).

C57BL/6J Mice = experiment: mouse model of doxorubicin-induced cardiomyopathy, echocardiography; assay type: in vivo; settings: doxorubicin 3 mg kg^−1 i.p. twice weekly for 3 weeks, agonist 12 mg kg^−1 oral once a day, at three weeks
Text: (§1) Mouse model of doxorubicin-induced cardiomyopathy and drug administration. […] For the control group, we treated mice with corn oil in the same schedule as agonist administration. We recorded an echocardiogram once a week (day 0, day 7, day 14, and day 21) and terminated the experiment at day 21. Hearts were harvested for western blot analyses as mentioned above.
Echocardiographic evaluation. Mice were studied at baseline and weekly during the protocol under light anesthesia with isoflurane (induction 3%, maintenance 1.5%). 2D images in the parastemal short axis were obtained with a GE Vivid 7 ultrasound system (GE Healthcare) equipped with a 13 MHz transducer. Left ventricular end-systolic (LVESD) and end-diastolic (LVEDD) dimensions were measured and left ventricular fractional shortening (FS) was calculated.

[1] = tested on: TOP2B, pERK and BCL2 in the hearts of mice; experiment: Western blot of mouse hearts at three weeks after treatment; assay type: in vivo; settings: doxorubicin plus oral agonist
Protocol: Western blot. We washed and harvested cells in cold PBS and collected them by centrifugation at 20,000 g for 10 min. at 4° C. Pellet was lysed in PBS containing 1% SDS and protease inhibitors (cOmplete, ROCHE) and sonicated (2 pulses of 12 sec at 125 Watt) to shear DNA. We centrifuged the samples at 20,000 g for 15 min. at RT to precipitate and discard the insoluble material and the protein concentration in the supernatant was quantified using BCA assay (Thermo Scientific) following manufacturer's instructions. 20 μg protein/sample were subject to SDS-PAGE in a 9% acrylamide gel for 45 min. at 180 V. and transferred to a PVDF membrane (Immobilon-P, Millipore) at 200 mA. For 90 min. Membranes were blocked in TBST containing 5% milk for 1 h. at RT and incubated at 4° C. overnight with the following primary antibodies: 1:1000 monoclonal rabbit IgG RARG (Abcam, ab187159), 1:1000 polyclonal rabbit IgG TOP2B (Abcam, ab125297), 1:5000 polyclonal rabbit IgG β-Tubulin (Sigma, T2200), 1:5000 monoclonal mouse IgG2a β-Actin (Sigma, A5316). The membrane was washed three times for 10 min with TBST and incubated with the appropriate secondary antibody: 1:5,000 HRP-goat anti-mouse IgG or HRP-goat anti-rabbit IgG (GE NA931V and NA934V) for 1 h. at RT. After three additional washes with TBST, membranes were developed by chemiluminiscence (SuperSignal West Pico, Thermo Scientific). Signals were captured using a CCD camera-based imager (Azure Biosystems) and quantified using Image J software. Mice heart tissues were harvested and homogenized using lysis buffer (80 mM NaCl, 0.05% Triton X, 1 mM EDTA, 20 mM HEPES, 0.5% sodium deoxycholate, 1 mM DTT, 20 mM β-glycerophosphate) with TissueLyser LT (Qiagen) and centrifuged at 10,000 rpm for 15 min at 4° C. Proteins were quantified with Bradford (Bio-Rad) and separated by TrisGlycine SDS/PAGE (Bio-Rad). Transferred proteins on nitrocellulose membrane were probed against TOP2B (R&D Systems), phosphorylated ERK1/2 (Cell Signaling Technologies), BCL2 (Santa Cruz Biotechnology), and GAPDH (Advanced ImmunoChemical).
as §1

ERK1/2 = experiment: MSD analysis of phosphorylated ERK in hiPSC-CMs; assay type: cell-based, human; settings: Control hiPSC-CMs treated with doxorubicin 24 h, with or without pre/co-treatment
Protocol: MSD analysis of phosphorylated ERK. hiPSC-CMs were collected in lysis buffer (150 mM NaCl, 1% TritonX-100, 50 mM Tris-HCl, pH 8.0) supplemented with Phosphatase Inhibitor II (1:100, Sigma-Adrich), Phosphatase Inhibitor Cocktail 3 (1:100, Sigma-Adrich), 1 mM NaVO4 and protease inhibitors (cOmplete, ROCHE). We centrifuged the samples at 50,000 g for 15 min. at 4° C. to precipitate and discard the insoluble material and the protein concentration in the supernatant was quantified using BCA assay (Thermo Scientific) following manufacturer's instructions. 2.5 μg protein/sample were analyzed using the MSD Phospho(Thr202/yr204; Thr185/Tyr187)/Total ERK1/2 Assay Whole Cell Lysate Kit (Meso Scale Discovery, K15100D-1), according to manufacturer's recommendations. The ratio of phosphorylated ERK was normalized to Total ERK1/2 signal, and analyzed using Prism 7.0 software (GraphPad).

RARG-WT hiPSC-CMs = settings: RARG-WT hiPSC-CMs, agonist 1 μM, 72 h doxorubicin
Protocol: as §2

control hiPSC-CMs = settings: 1 μM CD1530 and 30 μM U0126, Control hiPSC-CMs, 72 h doxorubicin
Protocol: as §2

SMILES | LD50 (MCF7) | cardiac function (fractional shortening) compared with vehicle treatment (C57BL/6J Mice) | pERK in the murine hearts [1] | pERK (ERK1/2) | BCL2 in the murine hearts [1] | TOP2B in the murine hearts [1] | increase of doxorubicin LD50 (RARG-WT hiPSC-CMs) | effect of ERK signaling inhibition on the protective effect of CD1530 (control hiPSC-CMs)
CC1=C(/C=C/C(C)=C/C=C/C(C)=C/C(=O)O)C(C)(C)CCC1 [ATRA, 3,7-Dimethyl-9-(2,6,6-trimethyl-1-cyclohexen-1-yl)-2E,4E,6E,8E-nonatetraenoic acid] | 0.355 µM | marginally improved | significantly increased |  |  |  |  | 
O=C(O)c1ccc2cc(-c3ccc(O)c(C45CC6CC(CC(C6)C4)C5)c3)ccc2c1 [CD437, 6-(4-Hydroxy-3-tricyclo[3.3.1.13,7]dec-1-ylphenyl)-2-naphthalenecarboxylic acid] | 0.343 µM |  |  |  |  |  |  | 
O=C(O)c1ccc(-c2ccc3cc(O)c(C45CC6CC(CC(C6)C4)C5)cc3c2)cc1 [CD1530, 4-(6-Hydroxy-7-tricyclo[3.3.1.13,7]dec-1-yl-2-naphthalenyl)benzoic acid] | 0.275** μM | significantly higher | significantly increased | significant increase in pERK; also recorded: significant upregulation of ERK expression | significant upregulation | modest but non-significant downregulation | 4 fold | 
N#CC(=C(/N)Sc1ccccc1N)/C(C#N)=C(\N)Sc1ccccc1N [U0126] |  |  |  |  |  |  |  | completely abolished the protective effect of CD1530

Reference: patent US11135236B2, “Retinoic acid receptor gamma agonists to attenuate anthracycline-induced cardiotoxicity” (Northwestern University, priority 2018, dated 2021)
